# Structures can show the parent of a compound that is named as a salt. ± gives the standard deviation of the averaged measurements.
# Key:
# [1] = tested on: 409B2 hiPSC (iCRISPR Cas9, FRMD7 editing); assay: NHEJ-attributed indel frequency relative to solvent control (fold (ratio to mock)); higher = more NHEJ outcomes
# Protocol: (§1)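 Subset screen of 55 drugs tested at 5 concentrations around the effective screening dose, in 409B2 iCRISPR Cas9 hiPSCs editing FRMD7 with a ssDNA donor. Drugs were applied for 24 h. Viability was read by resazurin and editing outcomes by amplicon sequencing (HDR, NHEJ <2 bp microhomology, MMEJ ≥2 bp microhomology). Values are relative to solvent mock controls; two biological replicates.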
# [2] = tested on: 409B2 hiPSC (iCRISPR Cas9, FRMD7 editing); assay: MMEJ-attributed deletion frequency relative to solvent control (fold (ratio to mock)); higher = more MMEJ outcomes
# Protocol: as §1
# [3] = tested on: 409B2 hiPSC (iCRISPR Cas9, FRMD7 editing); assay: cell survival relative to solvent control (fold (ratio to mock)); higher = more surviving cells
# Protocol: as §1
# [4] = tested on: 409B2 hiPSC (iCRISPR Cas9, FRMD7 editing); assay: HDR (precise edit) frequency relative to solvent control (fold (ratio to mock)); higher = more homology-directed repair outcomes
# Protocol: as §1
SMILES,NHEJ-attributed indel frequency ([1]; 200 nM),NHEJ-attributed indel frequency ([1]; 500 nM),NHEJ-attributed indel frequency ([1]; 1000 nM),NHEJ-attributed indel frequency ([1]; 2000 nM),NHEJ-attributed indel frequency ([1]; 5000 nM),MMEJ-attributed deletion frequency ([2]; 200 nM),MMEJ-attributed deletion frequency ([2]; 500 nM),MMEJ-attributed deletion frequency ([2]; 1000 nM),MMEJ-attributed deletion frequency ([2]; 2000 nM),MMEJ-attributed deletion frequency ([2]; 5000 nM),cell survival ([3]; 200 nM),cell survival ([3]; 500 nM),cell survival ([3]; 1000 nM),cell survival ([3]; 2000 nM),cell survival ([3]; 5000 nM),HDR ([4]; 200 nM),HDR ([4]; 500 nM),HDR ([4]; 1000 nM),HDR ([4]; 2000 nM),HDR ([4]; 5000 nM),further results
CO[C@H]1O[C@@H]2O[C@@]3(C)CC[C@H]4[C@H](C)CC[C@@H]([C@H]1C)[C@@]24OO3 [Artemether (SM-224)] (in DMSO),0.983 ± 0.012,0.976 ± 0.022,0.958 ± 0.011,1 ± 0.024,1.02 ± 0.037,0.853 ± 0.13,0.935 ± 0.072,0.804 ± 0.037,0.907 ± 0.14,0.946 ± 0.026,0.947,1.23,0.644,1.09,1.03,1.06 ± 0.036,1.13 ± 0.018,1.123 ± 0.0055,1.09 ± 0.11,1.17 ± 0.15,–
O=C1NC(=O)[C@@H](c2cn3c4c(cccc24)CCC3)[C@@H]1c1c[nH]c2ccccc12 [Tivantinib (ARQ 197)] (in DMSO),0.949 ± 0.045,1.01 ± 0.025,1.115 ± 0.0054,1 ± 0.05,0.532 ± 0.069,0.915 ± 0.074,0.98 ± 0.025,1 ± 0.088,1.48 ± 0.36,0.786 ± 0.051,0.979,1.04,0.271,0.0426,0.0118,1.01 ± 0.089,1.05 ± 0.015,0.897 ± 0.1,0.507 ± 0.081,0.281 ± 0.0069,–
Nc1ccn(C[C@@H](CO)OCP(=O)(O)O)c(=O)n1 [Cidofovir] (in H2O),–,–,–,0.843 ± 0.058,0.835 ± 0.019,–,–,–,0.789 ± 0.08,0.881 ± 0.029,–,–,–,0.624,0.548,–,–,–,1.06 ± 0.083,0.9 ± 0.055,NHEJ-attributed indel frequency ([1]; 10000 nM): 0.862 ± 0.049; NHEJ-attributed indel frequency ([1]; 20000 nM): 0.736 ± 0.051; NHEJ-attributed indel frequency ([1]; 50000 nM): 0.988; MMEJ-attributed deletion frequency ([2]; 10000 nM): 0.924 ± 0.35; MMEJ-attributed deletion frequency ([2]; 20000 nM): 0.727 ± 0.12; MMEJ-attributed deletion frequency ([2]; 50000 nM): 0.968; cell survival ([3]; 10000 nM): 0.333; cell survival ([3]; 20000 nM): 0.167; cell survival ([3]; 50000 nM): 0.863; HDR ([4]; 10000 nM): 0.85 ± 0.081; HDR ([4]; 20000 nM): 0.574 ± 0.012; HDR ([4]; 50000 nM): 1.01
Nc1ncnc2c1ncn2C1CC(O)C(CO)O1 (stereo not given) [2'-Deoxyadenosine monohydrate] (in DMSO),1.006 ± 0.008,1.01 ± 0.027,–,–,–,1.02 ± 0.036,1.02 ± 0.2,–,–,–,1.1,1.12,–,–,–,1.01 ± 0.05,0.958 ± 0.062,–,–,–,NHEJ-attributed indel frequency ([1]; 20 nM): 1.01 ± 0.013; NHEJ-attributed indel frequency ([1]; 50 nM): 1.02 ± 0.015; NHEJ-attributed indel frequency ([1]; 100 nM): 1 ± 0.029; MMEJ-attributed deletion frequency ([2]; 20 nM): 0.957 ± 0.043; MMEJ-attributed deletion frequency ([2]; 50 nM): 0.99 ± 0.071; MMEJ-attributed deletion frequency ([2]; 100 nM): 0.999 ± 0.11; cell survival ([3]; 20 nM): 0.996; cell survival ([3]; 50 nM): 1.12; cell survival ([3]; 100 nM): 1; HDR ([4]; 20 nM): 1.03 ± 0.021; HDR ([4]; 50 nM): 1.02 ± 0.02; HDR ([4]; 100 nM): 1.03 ± 0.11
NCCS [2-Aminoethanethiol] (in DMSO),1 ± 0.022,1.02 ± 0.052,–,–,–,0.976 ± 0.074,1.04 ± 0.19,–,–,–,1.08,0.899,–,–,–,1.12 ± 0.029,0.949 ± 0.16,–,–,–,NHEJ-attributed indel frequency ([1]; 20 nM): 0.979 ± 0.0017; NHEJ-attributed indel frequency ([1]; 50 nM): 1.003 ± 0.0053; NHEJ-attributed indel frequency ([1]; 100 nM): 0.9962 ± 0.0046; MMEJ-attributed deletion frequency ([2]; 20 nM): 0.917 ± 0.035; MMEJ-attributed deletion frequency ([2]; 50 nM): 0.862 ± 0.013; MMEJ-attributed deletion frequency ([2]; 100 nM): 0.932 ± 0.18; cell survival ([3]; 20 nM): 0.948; cell survival ([3]; 50 nM): 1.07; cell survival ([3]; 100 nM): 0.956; HDR ([4]; 20 nM): 1.073 ± 0.0014; HDR ([4]; 50 nM): 1.05 ± 0.08; HDR ([4]; 100 nM): 0.984 ± 0.019
O[C@@H]1[C@H](O)[C@H](O)CO[C@H]1O [D-Ribose] (in DMSO),0.9958 ± 0.0022,0.999 ± 0.01,0.979 ± 0.013,1 ± 0.012,0.9861 ± 0.0075,0.939 ± 0.061,1.02 ± 0.1,0.965 ± 0.026,1.012 ± 0.0071,1.02 ± 0.16,1.06,1.16,1.06,1.1,1.04,1.13 ± 0.04,1.01 ± 0.06,1.13 ± 0.075,1.05 ± 0.025,1.06 ± 0.05,–
OC[C@H]1O[C@@H](c2ccc(F)c(Cc3cc4ccccc4s3)c2)[C@H](O)[C@@H](O)[C@@H]1O [Ipragliflozin] (in DMSO),1.01 ± 0.012,0.995 ± 0.032,–,–,–,0.94 ± 0.11,1.07 ± 0.08,–,–,–,1.12,0.95,–,–,–,1.02 ± 0.07,1.05 ± 0.067,–,–,–,NHEJ-attributed indel frequency ([1]; 20 nM): 1 ± 0.038; NHEJ-attributed indel frequency ([1]; 50 nM): 0.9974 ± 0.0051; NHEJ-attributed indel frequency ([1]; 100 nM): 1.005 ± 0.0019; MMEJ-attributed deletion frequency ([2]; 20 nM): 0.982 ± 0.092; MMEJ-attributed deletion frequency ([2]; 50 nM): 0.909 ± 0.09; MMEJ-attributed deletion frequency ([2]; 100 nM): 0.913 ± 0.041; cell survival ([3]; 20 nM): 0.951; cell survival ([3]; 50 nM): 1.11; cell survival ([3]; 100 nM): 0.915; HDR ([4]; 20 nM): 1.09 ± 0.029; HDR ([4]; 50 nM): 1 ± 0.037; HDR ([4]; 100 nM): 0.984 ± 0.064
Cc1c(C(C)C)c(=O)n(-c2ccccc2)n1C [Propyphenazone (4-Isopropylantipyrine)] (in DMSO),1.01 ± 0.013,0.993 ± 0.022,0.993 ± 0.041,0.995 ± 0.035,0.988 ± 0.014,0.984 ± 0.021,0.969 ± 0.059,0.881 ± 0.036,0.954 ± 0.091,0.965 ± 0.06,1.03,1.24,1.03,1.2,1.13,1.04 ± 0.021,1.11 ± 0.044,1.1 ± 0.068,1.07 ± 0.064,1.08 ± 0.031,–
O=C(c1cc(Cc2n[nH]c(=O)c3ccccc23)ccc1F)N1CCN(C(=O)C2CC2)CC1 (in DMSO),0.814 ± 0.042,0.78 ± 0.042,0.698 ± 0.076,0.6123 ± 0.0021,0.513 ± 0.04,0.9 ± 0.073,0.64 ± 0.079,0.705 ± 0.18,0.614 ± 0.013,0.746 ± 0.11,0.395,0.388,0.217,0.106,0.0246,1.28 ± 0.18,1.18 ± 0.16,1.341 ± 0.0076,1.03 ± 0.017,0.432 ± 0.03,–
CNCC[C@H](Oc1cccc2ccccc12)c1cccs1 [Duloxetine HCl] (in DMSO),–,–,–,0.932 ± 0.027,0.986 ± 0.0019,–,–,–,1.09 ± 0.25,1.14 ± 0.069,–,–,–,0.92,1.24,–,–,–,1.02 ± 0.13,1.14 ± 0.024,NHEJ-attributed indel frequency ([1]; 10000 nM): 0.998 ± 0.025; NHEJ-attributed indel frequency ([1]; 20000 nM): 1.029 ± 0.0059; NHEJ-attributed indel frequency ([1]; 50000 nM): 0.517 ± 0.45; MMEJ-attributed deletion frequency ([2]; 10000 nM): 1.36 ± 0.053; MMEJ-attributed deletion frequency ([2]; 20000 nM): 1.86 ± 0.036; MMEJ-attributed deletion frequency ([2]; 50000 nM): 1.42 ± 0.81; cell survival ([3]; 10000 nM): 1.18; cell survival ([3]; 20000 nM): 0.796; cell survival ([3]; 50000 nM): 0.0121; HDR ([4]; 10000 nM): 1.02 ± 0.0038; HDR ([4]; 20000 nM): 0.88 ± 0.06; HDR ([4]; 50000 nM): 0.33 ± 0.35
